Literature values in US20060193883A1, “Pesticidal treatment materials” (priority 1999, published 2006).

System: house dust mite populations
Conditions: in vivo

Row | SMILES | effectiveness as long-term acaricides against house dust mite populations
1 | CC1(C)[C@H](C(=O)O[C@H](C#N)c2cccc(Oc3ccccc3)c2)[C@@H]1C=C(Br)Br [deltamethrin] | highly effective
2 | CC1(C)C(C=C(Cl)Cl)C1C(=O)OCc1cccc(Oc2ccccc2)c1 (centres unmarked) [permethrin] | highly effective
